Measured values: patent publication US20130338574A1, “ORAL MEDICINAL COMPOSITION FOR PATIENTS UNDERGOING PERITONEAL DIALYSIS AND METHOD FOR USING SAME” (TOKAI UNIVERSITY EDUCATIONAL SYSTEM, priority 2010, published 2013)

System: dicarbonyl compounds (3-deoxyglucosone) in the intraperitoneal fluid
Experiment: 3-deoxyglucosone in intraperitoneal fluid of uremic rat models, neutral peritoneal dialysis fluid (Experimental Example 3)
Assay type: in vivo, rats
Conditions: oral 30 mg/rat/day, 7 days
Description: Kidney subtotal excision rats with chronic renal failure (uremic rat models) were produced in the same manner as in Experimental Example 2. Distilled water for injection was orally administered compulsorily to Group 1 (control group) (n=3) once a day, and the pyridoxamine salt aqueous solution was orally administered compulsorily to Group 2 (pyridoxamine salt orally administered group) once a day. On the 6th day of administration, after distilled water for injection and the pyridoxamine salt aqueous solution were orally administered, respectively, to Groups 1 and 2, 20 ml of a neutral peritoneal dialysis fluid (pH 6.5 to 7.5) to be mixed before use (trade name: Dianeal (registered trademark)-N PD-4-1.5 mixture; Baxter Limited) (Table 1) was injected intraperitoneally to both groups, in place of the acid peritoneal dialysis fluid administered in Experimental Example 2. As explained in Experimental Example 1, the peritoneal dialysis fluid was composed of an upper-compartment solution and a lower-compartment solution separated by a partition, and both solutions were mixed immediately before being injected into the peritoneal cavity. […] The concentration of dicarbonyl compounds (3-deoxyglucosone) in the intraperitoneal fluid of each group was measured by HPLC in the same manner as in Experimental Example 2.

Cc1ncc(CO)c(CN)c1O.Cl.Cl [pyridoxamine dihydrochloride, Pyridoxamine dihydrochloride]
3-deoxyglucosone concentration in the peritoneal cavity relative to control group (neutral peritoneal dialysis fluid): less than one-half
3-deoxyglucosone concentration in intraperitoneal fluid (neutral peritoneal dialysis fluid (pH 6.5 to 7.5) Dianeal-N PD-4-1.5 mixture, 20 ml i.p., control group 23.4): 10.3 µg/mL
